Experimental data: patent publication US12102638B2 (Urovant Sciences GmbH, priority 2017, dated 2024)
Where “and” joins values, the source holds several entries; their conditions need not be identical. Equal values may be shown once. Read-outs that look alike come from different tables or passages of the source.

Key:
β1-AR = molecular target: T1, β1-AR (Homo sapiens, UniProt P08588); test: competition binding assay, membranes with recombinant β1-AR
T1 construct: expressed in transfected cells; membranes used
T1 sequence (P08588 whole entry): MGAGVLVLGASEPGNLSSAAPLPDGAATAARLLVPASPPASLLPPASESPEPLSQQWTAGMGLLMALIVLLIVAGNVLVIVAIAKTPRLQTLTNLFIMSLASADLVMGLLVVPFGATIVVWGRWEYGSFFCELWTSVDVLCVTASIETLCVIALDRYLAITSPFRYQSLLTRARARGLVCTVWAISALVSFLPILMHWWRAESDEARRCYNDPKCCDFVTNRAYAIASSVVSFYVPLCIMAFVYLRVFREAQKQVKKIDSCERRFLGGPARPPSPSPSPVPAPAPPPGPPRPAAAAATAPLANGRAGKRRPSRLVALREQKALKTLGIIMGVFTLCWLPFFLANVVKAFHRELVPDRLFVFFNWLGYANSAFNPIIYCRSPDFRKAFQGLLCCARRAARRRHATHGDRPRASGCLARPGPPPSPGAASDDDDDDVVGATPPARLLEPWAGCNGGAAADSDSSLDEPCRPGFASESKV

β2-AR = β2-AR (Homo sapiens, UniProt P07550); test: competition binding assay, membranes with recombinant β2-AR
β2-AR, sequence (P07550 whole entry): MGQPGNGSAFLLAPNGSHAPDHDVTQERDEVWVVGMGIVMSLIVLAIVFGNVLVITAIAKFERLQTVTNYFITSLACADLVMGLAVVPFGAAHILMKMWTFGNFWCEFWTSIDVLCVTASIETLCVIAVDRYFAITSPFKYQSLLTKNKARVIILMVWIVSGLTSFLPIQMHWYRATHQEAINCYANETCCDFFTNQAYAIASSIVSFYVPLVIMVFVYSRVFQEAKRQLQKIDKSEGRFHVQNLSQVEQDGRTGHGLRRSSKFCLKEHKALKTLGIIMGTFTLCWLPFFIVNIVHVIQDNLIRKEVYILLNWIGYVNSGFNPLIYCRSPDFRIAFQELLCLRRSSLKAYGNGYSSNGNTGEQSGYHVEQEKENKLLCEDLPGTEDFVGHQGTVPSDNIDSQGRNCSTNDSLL

CYP3A4 = CYP3A4 (Homo sapiens, UniProt P08684); test: in vitro metabolism by CYPs; type: in vitro ADME
CYP3A4, sequence (P08684 whole entry): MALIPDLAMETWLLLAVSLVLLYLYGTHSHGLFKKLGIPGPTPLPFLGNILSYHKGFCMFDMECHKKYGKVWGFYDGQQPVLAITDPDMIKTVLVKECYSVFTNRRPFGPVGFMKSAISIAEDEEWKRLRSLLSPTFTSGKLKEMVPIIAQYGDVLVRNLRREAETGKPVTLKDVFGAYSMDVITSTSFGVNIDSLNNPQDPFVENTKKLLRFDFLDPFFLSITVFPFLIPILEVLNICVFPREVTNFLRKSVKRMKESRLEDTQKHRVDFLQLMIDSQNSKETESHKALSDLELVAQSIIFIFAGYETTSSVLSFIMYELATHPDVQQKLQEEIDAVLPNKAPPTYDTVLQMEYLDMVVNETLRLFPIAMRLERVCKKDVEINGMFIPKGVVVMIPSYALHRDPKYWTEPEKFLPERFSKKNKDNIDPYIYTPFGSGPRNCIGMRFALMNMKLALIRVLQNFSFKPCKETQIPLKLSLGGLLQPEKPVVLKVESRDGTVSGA

[1] = single rising oral dose Phase 1 pharmacokinetics in healthy subjects; type: in vivo, human; details: for AUC(0-t): read-out: AUC0-24
Description: All subjects were healthy adults. […] Systemic exposures were greater than dose proportional up to 600 mg.

[2] = multiple rising dose Phase 1 pharmacokinetics in healthy subjects; type: in vivo, human; details: for concentration at 14 days: plasma, oral, read-out: Ctrough
[3] = relative bioequivalence of aqueous and non-aqueous tablets; type: in vivo, human; details: 50 mg
Description: An open-label, single-dose, randomized, two-period, two-treatment, two-sequence, crossover Phase 1 study evaluated the relative bioequivalence of two types of tablets with slightly different composition: aqueous tablet (test) and non-aqueous tablet (reference).

[4] = single-dose PK in patients with renal impairment; type: in vivo, human; details: for CL/F, geometric LS mean / Fe[urine]48 hr, geometric mean: single 100 mg
Description: The relationship between clearance and renal function was modeled using linear regression.

healthy subjects = test: thorough QT single oral dose study; type: in vivo, human
[5] = male, human, plasma, oral, 50 mg, single 50 mg, healthy young males
[6] = male, human, plasma, oral, 50 mg, single 50 mg, healthy young males, Japanese
[7] = Healthy Matched Control Subjects

O=C(Nc1ccc(C[C@@H]2CC[C@H]([C@H](O)c3ccccc3)N2)cc1)[C@@H]1CCc2nccc(=O)n21 [vibegron, (6S)—N-[4-[[(2S,5R)-5-[(R)-hydroxy(phenyl)methyl]pyrrolidin-2-yl]methyl]phenyl]-4-oxo-7,8-dihydro-6H-pyrrolo[1,2-a]pyrimidine-6-carboxamide]
binding to β1-AR (β1-AR): does not bind | binding to β2-AR (β2-AR): does not bind | CYP responsible for in vitro metabolism (CYP3A4): CYP3A4 is the predominant CYP | Cmax [1, 5]: 0.0317 ± 0.035 µg/mL | Cmax [1, 6]: 0.0622 ± 0.0204 µg/mL | AUC(0-t) [1, 6]: 0.385 ± 0.136 µg·h/mL | AUC(0-inf) ([1]; male, human, plasma, oral, 50 mg, single 50 mg, healthy young males, Japanese, read-out: AUC0-inf): 0.885 ± 0.241 µg·h/mL | AUC(0-t) [1, 5]: 0.219 ± 0.123 µg·h/mL | AUC(0-inf) ([1]; male, human, plasma, oral, 50 mg, single 50 mg, healthy young males, read-out: AUC0-inf): 0.551 ± 0.262 µg·h/mL | t1/2, harmonic mean ± pseudo SD ([1]; single 20 mg, healthy young males): 64.2 ± 12.6 h | t1/2, harmonic mean ± pseudo SD ([1]; single 50 mg, Elderly Male and Female): 92 h and 92.1 ± 15.9 h | t1/2, harmonic mean ± pseudo SD ([1]; single 50 mg, healthy young males, Japanese): 64.4 ± 8.7 h | t1/2, harmonic mean ± pseudo SD ([1]; single 100 mg, healthy young males): 72.8 ± 10.8 h | AUC(0-inf) ([1]; single 150 mg, healthy young males): 2.27 ± 0.911 µg·h/mL | t1/2, harmonic mean ± pseudo SD ([1]; single 200 mg, healthy young males): 75.3 ± 9.1 h | t1/2, harmonic mean ± pseudo SD ([1]; single 200 mg, healthy young males, Japanese): 58.4 ± 9.0 h | t1/2, harmonic mean ± pseudo SD ([1]; single 300 mg, healthy young males, Japanese): 59.7 ± 9.2 h | t1/2, harmonic mean ± pseudo SD ([1]; single 450 mg, healthy young males): 60.0 ± 9.4 h | fraction of dose excreted at steady state (fe0-24hr, ss) ([2]; 100 mg, elderly subjects): ~17% | fraction of dose excreted at steady state (fe0-24hr, ss) ([2]; 100 and 150 mg, young males): ~14% | steady state exposure (AUC0-24) higher in elderly Japanese than elderly non-Japanese ([2]; Day 14): 35% | steady state Cmax in elderly compared to young males ([2]; QD doses of 100 mg): ~1.3 fold | concentration at 14 days ([2]; both sexes, human, 100 mg, multiple dose 100 mg, after 14 days, Elderly Male and Female): 0.0542 µg/mL | Cmax higher in elderly and females than healthy young males ([2]; human, in vivo): 50-70% | Cmax increased in elderly Japanese compared to elderly non-Japanese ([2]; human, in vivo): 82% | steady state AUC in middle-aged females compared to middle-aged males ([2]; human, in vivo): ~1.5 fold | steady state exposures higher in Japanese than non-Japanese young males ([2]; human, in vivo): ~30% | concentration at 14 days ([2]; male, human, 50 mg, multiple dose 50 mg, after 14 days, healthy young males): 0.0152 µg/mL | concentration at 14 days ([2]; male, human, 100 mg, multiple dose 100 mg, after 14 days, healthy young males, Japanese): 0.041 ± 0.011 µg/mL | concentration at 14 days ([2]; male, human, 100 mg, multiple dose 100 mg, after 14 days, healthy young males): 0.0319 µg/mL | t1/2, harmonic mean ± pseudo SD ([2]; multiple dose 150 mg, after 14 days, healthy young males): 79.2 ± 9.2 h | AUC0-24 ([2]; multiple dose 200 mg, after 14 days, healthy young males): 3.2 ± 1.12 µg·h/mL | t1/2, harmonic mean ± pseudo SD ([2]; multiple dose 400 mg, after 14 days, healthy young males): 58.9 ± 5.9 h | time to steady state concentrations ([2]; once daily dosing): ≤ 7 days | exposures (AUC) higher in females compared with males ([2]; regardless of age): 50% | AUC0-inf GMR test to reference tablet [3]: 100.2% | Cmax GMR test to reference tablet [3]: 107.7% | AUC0-inf higher compared to healthy matched control ([4]; mild renal impairment): 49% | CLR reduced compared to healthy matched control ([4]; mild renal impairment): 39% | Cmax higher compared to healthy matched control ([4]; mild renal impairment): 96% | AUC0-inf higher compared to healthy matched control ([4]; moderate renal impairment): 106% | CLR reduced compared to healthy matched control ([4]; moderate renal impairment): 65% | Cmax higher compared to healthy matched control ([4]; moderate renal impairment): 68% | mean increase in AUC compared to subjects with normal renal function ([4]; moderate renal impairment): 1.6 fold | AUC0-inf higher compared to healthy matched control ([4]; severe renal impairment): 83% | CLR reduced compared to healthy matched control ([4]; severe renal impairment): 82% | Cmax higher compared to healthy matched control ([4]; severe renal impairment): 42% | CL/F, geometric LS mean [4, 7]: 64.9 L/h | Fe[urine]48 hr, geometric mean [4, 7]: 7.9% | CL/F, geometric LS mean ([4]; Mild Renal Impairment): 43.6 L/h | Fe[urine]48 hr, geometric mean ([4]; Mild Renal Impairment): 8.5% | CL/F, geometric LS mean ([4]; Moderate Renal Impairment): 31.5 L/h | Fe[urine]48 hr, geometric mean ([4]; Moderate Renal Impairment): 5.5% | CL/F, geometric LS mean ([4]; Severe Renal Impairment): 35.5 L/h | Fe[urine]48 hr, geometric mean ([4]; Severe Renal Impairment): 2.1% | CL/F increase per one mL/min/1.73 m^2 increase in eGFR ([4]; slope of linear regression): ~0.8% | AUC, mean ± SD (healthy subjects; single 200 mg): 2.43 ± 0.974 µg·h/mL | Maximum Mean Placebo Corrected Change from Baseline Diastolic BP (healthy subjects; single 200 mg): 2.42 mmHg | Maximum Mean Placebo Corrected Change from Baseline RR interval (healthy subjects; single 200 mg): -84.36 ms | Maximum Mean Placebo Corrected Change from Baseline Systolic BP (healthy subjects; single 200 mg): 2.20 mmHg | upper limits of the 90% CIs of all QTcF mean differences from placebo (healthy subjects; single 200 mg and 400 mg): < 10 ms | QTcF LS mean difference from placebo (healthy subjects; single 200 mg, 0.5 hour): 2.90 ms | QTcF change from baseline, LS mean (healthy subjects; single 200 mg, 0.5 hour): 1.90 ms | QTcF change from baseline, LS mean (healthy subjects; single 200 mg, 1 hour): 4.87 ms | QTcF LS mean difference from placebo (healthy subjects; single 200 mg, 1 hour (maximum)): 4.98 (3.07, 6.88) msec and 4.98 msec | QTcF LS mean difference from placebo (healthy subjects; single 200 mg, 2 hour): 2.14 ms | QTcF change from baseline, LS mean (healthy subjects; single 200 mg, 2 hour): 2.06 ms | QTcF LS mean difference from placebo (healthy subjects; single 200 mg, 3 hour): 0.40 ms | QTcF change from baseline, LS mean (healthy subjects; single 200 mg, 3 hour): 1.14 ms | QTcF LS mean difference from placebo (healthy subjects; single 200 mg, 4 hour): -0.83 ms | QTcF change from baseline, LS mean (healthy subjects; single 200 mg, 4 hour): -0.40 ms | QTcF LS mean difference from placebo (healthy subjects; single 200 mg, 6 hour): -1.26 ms | QTcF change from baseline, LS mean (healthy subjects; single 200 mg, 6 hour): -6.89 ms
